Source: paper PMC3434127, “Insights into Phosphate Cooperativity and Influence of Substrate Modifications on Binding and Catalysis of Hexameric Purine Nucleoside Phosphorylases” (PLoS ONE, 2012)

Target: T1, BsPNP233 (Bacillus subtilis, UniProt O34925)
T1 construct: gene deoD; full length, 233 residues, N-terminal His-tag kept (eight tag residues seen in one crystal form), recombinant from E. coli, homohexamer (D3); active site at dimer interface
T1 sequence (O34925 1-233): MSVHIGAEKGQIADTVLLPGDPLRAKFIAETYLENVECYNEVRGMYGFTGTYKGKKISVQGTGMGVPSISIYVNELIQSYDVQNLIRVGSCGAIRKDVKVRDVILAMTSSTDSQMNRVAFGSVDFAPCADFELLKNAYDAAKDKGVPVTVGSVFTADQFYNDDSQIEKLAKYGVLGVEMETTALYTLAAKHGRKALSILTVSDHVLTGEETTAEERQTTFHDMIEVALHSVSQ
Experiment: X-ray crystal structure (soaked crystal)
Format: binding

[1] = crystals grown in 0.1 M sodium acetate pH 4.6, 3.2 M NaCl, 5% glycerol, 291 K, nucleoside site

In the case of `Nc1nc2c(ncn2COCCO)c(=O)[nH]1` [ACV, aciclovir], the “X-ray crystal structure (soaked crystal)” value (crystals grown in 0.1 M sodium acetate pH 4.6, 3.2 M NaCl, 5% glycerol, 291 K, nucleoside site, two conformations of the acyclic chain, half-occupancy phosphate modelled) is reported as “Aciclovir binds to the BsPNP233 nucleoside binding site”.

In the case of `Nc1ncnc2[nH]cnc12` [Ade, adenine], the “X-ray crystal structure (soaked crystal)” value (purine-binding site, solved without (4DAO) and with sulfate (form I, 4D8V)) is reported as “The BsPNP233-Ade binary complex was solved with (BsPNP233-Ade-SO4) or without (BsPNP233-Ade) sulfate ion”.

With `Nc1ncnc2c1ncn2[C@@H]1O[C@H](CO)[C@@H](O)[C@H]1O` [Ado, adenosine] the “X-ray crystal structure (soaked crystal)” value [1] was “The base moiety of adenosine (Ado) binds to the BsPNP233 active site”.

For `Nc1nc2c(nc(Br)n2[C@@H]2O[C@H](CO)[C@@H](O)[C@H]2O)c(=O)[nH]1` [Br-Guo, 8-bromoguanosine], the “X-ray crystal structure (soaked crystal)” value [1] was “The ribosyl moiety of Br-Guo presents a typical C4′–endo conformation and binds to the active site”.

In the case of `Nc1nc(Cl)c2ncn([C@@H]3O[C@H](CO)[C@@H](O)[C@H]3O)c2n1` [Cl-Guo, 6-chloroguanosine], the “X-ray crystal structure (soaked crystal)” value [1] is reported as “The molecule Cl-Guo displays a similar binding mode to that observed for dGuo”.

For `Nc1nc(F)nc2c1ncn2[C@@H]1O[C@H](CO)[C@@H](O)[C@H]1O` [F-Ado, 2-fluoradenosine], the “X-ray crystal structure (soaked crystal)” value [1] was “The crystal structure of BsPNP233-(F-Ado) complex had two BsPNP233 subunits per asymmetric unit”.

`Nc1nc2c(ncn2COC(CO)CO)c(=O)[nH]1` [GCV, ganciclovir] was tested, and the “X-ray crystal structure (soaked crystal)” value [1] was “GCV binds to the nucleoside binding site of BsPNP233”.

For `O=c1[nH]cnc2nc[nH]c12` [Hyp, hypoxanthine], the “X-ray crystal structure (soaked crystal)” value (crystals grown in 0.1 M sodium acetate pH 4.6, 3.2 M NaCl, 5% glycerol, 291 K, purine-binding site, glycerol in ribose site) was “crystal structures of BsPNP233 in complex with hypoxanthine (Hyp) and adenine (Ade)”.

In the case of `Nc1ncnc2c1ccn2[C@@H]1O[C@H](CO)[C@@H](O)[C@H]1O` [TBN, tubercidin], the “X-ray crystal structure (soaked crystal)” value [1] is reported as “TBN presented an interaction mode very similar to that seen for the natural substrate adenosine”.
